# Test results taken from patent US20140329868A1, “METHODS FOR TREATING HYPERTENSION” (TAKEDA PHARMACEUTICALS U.S.A., INC., priority 2005, published 2014).
# Tests used:
# [1] = test system: subjects having a systolic BP≧160 mmHg or diastolic BP≧95 mmHg (elevated blood pressure); assay: Example 3: blood pressure change in subjects with elevated blood pressure, none taking angiotensin antagonists (two double-blind studies); format: in vivo, human
# Protocol: None of these subjects were taking any angiotensin antagonists, but might have been taking some other type of antihypertensive drug at the baseline (start) of the study. These 187 subjects were part of two (2) DB studies. One study was of 28 weeks in duration during which subjects received 80 mg, 120 mg or 240 mg QD of febuxostat or placebo or allopurinol 300 or 100 mg QD, depending on the subject's renal function. The second study was of 52 weeks in duration during which subjects received 80 mg or 120 mg QD of febuxostat or allopurinol 300 mg QD. Of these 187 subjects, all completed 4 weeks of treatment and 132 completed 28 weeks of treatment. A total of 52 weeks of treatment was completed by 15 subjects in the febuxostat 80 mg QD group, 11 in the febuxostat 120 mg QD group and 22 in the allopurinol 300/100 mg QD group. Because of the shorter duration of one of the 2 DB studies, no subject in the placebo and febuxostat 240 mg QD groups were treated for 52 weeks.
# [2] = test system: oxonic acid (OA)-induced hyperuricemic model in Sprague-Dawley rats; assay: Example 4: renal arteriolar morphology in normal and OA-dosed rats; format: in vivo
# Protocol: Materials and Methods. To produce hyperuricemia, rats received OA (Sigma, St Louis Mo., USA) 750 mg/kg body weight daily by gastric gavage. To investigate the treatment effect of febuxostat (also referred to herein as “Fx”), the drug was administered in drinking water at 50 mg/L (approximately 5-6 mg/kg/day) four weeks after OA dosing while the respective controls received 5.84 mg/L of NaCl in drinking water (to maintain a salt concentration equivalent to the Febuxostat-containing water). The following four groups (n=10-11) were included in the study: Group 1, normal control rats which received no treatment for eight weeks; Group 2, Normal+Febuxostat rats which received no treatment for four weeks and then were treated with febuxostat for four weeks from Weeks 5 to 8; Group 3, OA rats which received OA for eight weeks; and Group 4, OA+Febuxostat rats which received OA for eight weeks and febuxostat for four weeks from Weeks 5 to 8. Body weight, food and water intakes were measured daily. Systolic blood pressure, obtained in conscious rats by a tail cuff sphygmomanometer, and plasma uric acid were measured in all animals at baseline and at the end of four and eight weeks. […]
# Renal Histology and Quantification of Morphology. […] Arteriolar morphology was assessed by indirect peroxidase immunostaining for alpha smooth-muscle actin (DAKO Corp, Carpinteria, Calif., USA). […]
# For each arteriole, the outline of the vessel and its internal lumen (excluding the endothelium) were generated using computer analysis to calculate the total medial area (outline−inline) in 10 arterioles per biopsy. The media/lumen ratio was calculated by the outline/inline relationship (See, Sanchez-Lozada L G, et al., Am J Physiol Renal Physiol 283:F1105-F1110, (2002) and Sanchez-Lozada L G, et al., Kidney Int 67:237-247 (2005)). Quantifications were performed blinded.
# Statistical Analysis. Values were expressed as mean±standard error of the mean (hereinafter “SEM”). In the study, values from the respective four treatment groups were analyzed by one-way analysis of variance (hereinafter “ANOVA”). […]
# [3] = test system: subjects having a systolic BP≧160 mmHg or diastolic BP≧95 mmHg (elevated blood pressure); assay: Example 2: blood pressure change in subjects with elevated blood pressure, none taking angiotensin-converting enzyme inhibitors (two double-blind studies); format: in vivo, human
# Protocol: None of these subjects were taking any angiotensin-coverting enzyme inhibitors, but might have been taking some other type of antihypertensive drug at the baseline (start) of the study. These 158 subjects were part of two (2) DB studies. One study was of 28 weeks in duration during which subjects received 80 mg, 120 mg or 240 mg QD of febuxostat or placebo or allopurinol 300 or 100 mg QD, depending on the subject's renal function. The second study was 52 weeks in duration during which subjects received 80 mg or 120 mg QD of febuxostat or allopurinol 300 mg QD. […] A total of 52 weeks of treatment was completed by 15 subjects in the febuxostat 80 mg QD group, 9 in the febuxostat 120 mg QD group and 17 in the allopurinol 300/100 mg QD group. Because of the shorter duration of one of the two DB studies, no subject in the placebo and febuxostat 240 mg QD groups was treated for 52 weeks.
# [4] = 80 mg QD, after 4 weeks of treatment
# [5] = 80 mg QD, after 28 weeks of treatment
# [6] = 80 mg QD, after 52 weeks of treatment
# [7] = 120 mg QD, after 4 weeks of treatment
# [8] = 120 mg QD, after 28 weeks of treatment
# [9] = 120 mg QD, after 52 weeks of treatment
# [10] = 240 mg QD, after 4 weeks of treatment
# [11] = 240 mg QD, after 28 weeks of treatment
smiles,measurement,setting,value
"Cc1nc(-c2ccc(OCC(C)C)c(C#N)c2)sc1C(=O)O [febuxostat, 2-[3-cyano-4-(2-methylpropoxy)phenyl]-4-methylthiazole-5-carboxylic acid]",mean change from baseline for diastolic BP,[1]; [4],−3.1 mmHg
same,mean change from baseline for mean arterial BP,[1]; [4],−4.3 mmHg
same,mean change from baseline for systolic BP,[1]; [4],−6.7 mmHg
same,mean change from baseline for diastolic BP,[1]; [5],−7.3 mmHg
same,mean change from baseline for mean arterial BP,[1]; [5],−9.0 mmHg
same,mean change from baseline for systolic BP,[1]; [5],−12.6 mmHg
same,mean change from baseline for diastolic BP,[1]; [6],−8.4 mmHg
same,mean change from baseline for mean arterial BP,[1]; [6],−11.6 mmHg
same,mean change from baseline for systolic BP,[1]; [6],−17.9 mmHg
same,mean change from baseline for diastolic BP,[1]; [7],−7.5 mmHg
same,mean change from baseline for mean arterial BP,[1]; [7],−7.8 mmHg
same,mean change from baseline for systolic BP,[1]; [7],−8.5 mmHg
same,mean change from baseline for diastolic BP,[1]; [8],−8.5 mmHg
same,mean change from baseline for mean arterial BP,[1]; [8],−9.9 mmHg
same,mean change from baseline for systolic BP,[1]; [8],−12.8 mmHg
same,mean change from baseline for diastolic BP,[1]; [9],−7.4 mmHg
same,mean change from baseline for mean arterial BP,[1]; [9],−11.1 mmHg
same,mean change from baseline for systolic BP,[1]; [9],−18.6 mmHg
same,mean change from baseline for diastolic BP,[1]; [10],−9.1 mmHg
same,mean change from baseline for mean arterial BP,[1]; [10],−9.8 mmHg
same,mean change from baseline for systolic BP,[1]; [10],−11.3 mmHg
same,mean change from baseline for diastolic BP,[1]; [11],−4.9 mmHg
same,mean change from baseline for mean arterial BP,[1]; [11],−6.3 mmHg
same,mean change from baseline for systolic BP,[1]; [11],−9.2 mmHg
same,"thickening of the afferent arteriole (medial area), effect in words","[2]; OA-treated rats, FIG. 4",able to alleviate this thickening
same,arteriolar media-lumen ratio (effect in words),"[2]; OA-treated rats, FIG. 5",significantly reduced
same,arteriolar morphology (effect in words),[2]; normal rats,no effect on arteriolar morphology
same,mean change from baseline for diastolic BP,[3]; [4],−4.7 mmHg
same,mean change from baseline for mean arterial BP,[3]; [4],−5.5 mmHg
same,mean change from baseline for systolic BP,[3]; [4],−7.2 mmHg
same,mean change from baseline for diastolic BP,[3]; [5],−8.7 mmHg
same,mean change from baseline for mean arterial BP,[3]; [5],−9.2 mmHg
same,mean change from baseline for systolic BP,[3]; [5],−10.4 mmHg
same,mean change from baseline for diastolic BP,[3]; [6],−8.1 mmHg
same,mean change from baseline for mean arterial BP,[3]; [6],−8.5 mmHg
same,mean change from baseline for systolic BP,[3]; [6],−9.5 mmHg
same,mean change from baseline for diastolic BP,[3]; [7],−7.2 mmHg
same,mean change from baseline for mean arterial BP,[3]; [7],−7.6 mmHg
same,mean change from baseline for systolic BP,[3]; [7],−8.3 mmHg
same,mean change from baseline for diastolic BP,[3]; [8],−7.5 mmHg
same,mean change from baseline for mean arterial BP,[3]; [8],−8.7 mmHg
same,mean change from baseline for systolic BP,[3]; [8],−11.0 mmHg
same,mean change from baseline for diastolic BP,[3]; [9],−7.2 mmHg
same,mean change from baseline for mean arterial BP,[3]; [9],−11.3 mmHg
same,mean change from baseline for systolic BP,[3]; [9],−19.4 mmHg
same,mean change from baseline for diastolic BP,[3]; [10],−9.3 mmHg
same,mean change from baseline for mean arterial BP,[3]; [10],−12.5 mmHg
same,mean change from baseline for systolic BP,[3]; [10],−18.9 mmHg
same,mean change from baseline for diastolic BP,[3]; [11],−10.0 mmHg
same,mean change from baseline for mean arterial BP,[3]; [11],−12.9 mmHg
same,mean change from baseline for systolic BP,[3]; [11],−18.8 mmHg
